# Source: publication PMC11211886 (Frontiers in Pharmacology, 2024)
# Where two headings read alike, the source gives them in different places.
# What was measured:
# CYP2C8 = target: T1, CYP2C8 (Homo sapiens, UniProt P10632); experiment: Time-dependent CYP inhibition in HLM, CYP2C8; type: in vitro ADME; conditions: 10 μM, 30 min pre-incubation with NADPH
# T1 construct: tissue Life Technologies (Durham, NC, USA); host or cells: human liver microsomes
# T1 sequence (P10632 1-490): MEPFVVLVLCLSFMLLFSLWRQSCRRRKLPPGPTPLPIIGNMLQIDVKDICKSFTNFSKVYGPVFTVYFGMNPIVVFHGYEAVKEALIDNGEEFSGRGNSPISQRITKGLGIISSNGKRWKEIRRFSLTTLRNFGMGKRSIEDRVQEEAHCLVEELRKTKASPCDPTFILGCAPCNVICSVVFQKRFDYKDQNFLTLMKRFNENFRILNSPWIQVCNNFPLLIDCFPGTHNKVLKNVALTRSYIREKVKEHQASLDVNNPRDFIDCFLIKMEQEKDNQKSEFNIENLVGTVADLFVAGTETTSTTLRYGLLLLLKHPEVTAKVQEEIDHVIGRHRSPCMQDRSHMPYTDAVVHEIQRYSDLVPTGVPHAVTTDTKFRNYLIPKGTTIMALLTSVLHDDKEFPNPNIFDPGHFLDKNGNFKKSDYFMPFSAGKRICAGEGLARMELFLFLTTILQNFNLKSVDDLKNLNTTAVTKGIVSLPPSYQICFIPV
# Protocol: The procedure of time-dependent CYP inhibition was similar to that used for CYP reversible inhibition, as mentioned above, except that a pre-incubation step was added. […] Another appropriate volume of the NADPH-regenerating system and probe substrate were added to initiate the CYP isoform enzyme activity test step. For this step, the incubation period was 10 min, except for CYP2B6, CYP2C8, and CYP3A4/5 (probe substrate: midazolam), which was 3 min to make sure the reaction was under initial linear rates. After incubation for the designated time periods at 37°C, the ice-cold acetonitrile containing IS was added to quench the reaction. […] (Ainactivator/[…] represents the enzyme activity remaining due to the inhibition by the diluted inactivator in the enzyme activity test step, and (Ainactivator/[…] represents the remaining enzyme activity due to pre-incubation loss plus inhibition by the diluted inactivator in the enzyme activity test step.
# CYP2B6 = conditions: male, human, 48 h
# Protocol: […] […] […] Enzyme activity for each CYP isoform was reported as a fold change over vehicle control and the percent of positive control (detailed calculation in Supplementary 1.1). Hepatocytes were harvested with a lysis buffer from RNeasy 96 Kit (Qiagen Inc., Germantown, MD, USA) to isolate RNA, which was analyzed by real-time quantitative polymerase chain reaction (RT-PCR). […] Emax (the maximal observed induction) and EC50 (the concentration that supports half-maximal induction) were estimated by non-linear regression of fold increase in CYP mRNA expression versus concentration plots.
# The fold of vehicle control and the percent of positive control were calculated with the formulas below:
# Fold of vehicle control = CYPs activity of test compound (or positive control) treated sample / CYPs activity of vehicle control treated sample
# % of positive control = [(fold change in treated sample)-1] / [(fold change in positive control)-1] × 100
# Based on the enzyme activity, a minimum of 2-fold increase compared to vehicle control for the positive control and ≥40% of the positive control for the test article was considered as the cutoff for a positive signal in in vitro induction assay.
# MATE1 = target: T2, MATE1 (Homo sapiens, UniProt Q96FL8); experiment: MATE1 inhibition, tetraethylammonium uptake in transfected HEK293 cells
# T2 sequence (Q96FL8 1-570): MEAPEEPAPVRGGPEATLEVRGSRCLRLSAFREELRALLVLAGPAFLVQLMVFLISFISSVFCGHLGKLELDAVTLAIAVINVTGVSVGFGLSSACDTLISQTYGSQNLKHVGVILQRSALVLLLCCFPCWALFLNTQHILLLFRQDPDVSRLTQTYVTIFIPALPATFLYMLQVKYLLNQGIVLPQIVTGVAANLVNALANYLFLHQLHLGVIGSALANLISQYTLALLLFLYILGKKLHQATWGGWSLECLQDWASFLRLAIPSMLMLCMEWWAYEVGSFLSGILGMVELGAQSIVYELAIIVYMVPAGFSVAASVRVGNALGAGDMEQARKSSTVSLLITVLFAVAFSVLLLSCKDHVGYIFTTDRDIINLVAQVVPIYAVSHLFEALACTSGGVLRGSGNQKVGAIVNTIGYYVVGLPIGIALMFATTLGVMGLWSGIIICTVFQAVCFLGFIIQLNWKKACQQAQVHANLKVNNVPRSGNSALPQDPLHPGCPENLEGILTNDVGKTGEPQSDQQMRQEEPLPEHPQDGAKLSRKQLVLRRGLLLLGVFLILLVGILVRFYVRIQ
# Protocol: The pre-incubation solutions were removed, and incubation solutions containing the inhibitors and probe substrates (or transport buffer containing an equal volume of vehicle control and probe substrates) were added and incubated at 37°C for 2 min (5 min for OATP1B3). The probe substrate for OAT1 was 4-aminohippuric acid (10 μM), for OAT3 was estrone 3-sulfate (10 μM), for OCT2 was metformin (100 μM), for OATP1B1 was β-estradiol 17-(β-D-glucuronide) (5 μM), for OATP1B3 was β-estradiol 17-(β-D-glucuronide) (10 μM), and for MATE1 and MATE2-K was tetraethylammonium (10 μM). After incubation, cells were washed three times with ice-cold transport buffer (25 mM HEPES, pH 7.4, pH 8.0 for overexpressing MATE1 and MATE2-K HEK293 cells) and lysed in distilled water. The concentrations of probe substrates were determined by LC-MS/MS, and a BCA Kit (Solarbio ®Life Sciences, Beijing, China) was used to determine the protein content in the cell lysate.
# where C is the concentration of the drug in the cell lysate (nM), P is the protein concentration of the cell lysate (mg/mL), and T is the incubation time (minute). Uptake ratetest compound is the uptake rate of the substrate in the presence of the test compound. Uptake ratevehicle control is the uptake rate of the substrate in the presence of the vehicle control. Uptake ratepassive is the uptake rate of the substrate in the presence of the positive inhibitor at the top test concentration.
compound,measurement,setting,value
C[C@H](Nc1ncnc(N)c1C#N)c1cc2ncc(Cl)n2nc1-c1ccccc1 [Amdizalisib],activity loss of CYP2C8,CYP2C8,less than 10%
same,Enzyme activity Percent of PC (%),CYP2B6; 1 µM,2.60%
same,Enzyme activity Percent of PC (%),CYP2B6; 3 µM,3.00%
same,Enzyme activity Percent of PC (%),CYP2B6; 10 µM,3.10%
same,Enzyme activity Percent of PC (%),CYP2B6; 20 µM,-11.1%
same,Enzyme activity Percent of PC (%),CYP2B6; 30 µM,-13.3%
same,IC50,MATE1,16.2 µM
same,calculated R value (MATE-1),MATE1,< 1.1
same,Percentage transported,"MATE1; MATE1, compound 0.3 μM",98.0%
same,Uptake rate,"MATE1; MATE1, compound 0.3 μM",244±23.4 pmol/mg protein/min
same,Percentage transported,"MATE1; MATE1, compound 1 μM",86.1%
same,Uptake rate,"MATE1; MATE1, compound 1 μM",216±1.37 pmol/mg protein/min
same,Percentage transported,"MATE1; MATE1, compound 3 μM",73.2%
same,Uptake rate,"MATE1; MATE1, compound 3 μM",186±12.4 pmol/mg protein/min
same,Percentage transported,"MATE1; MATE1, compound 10 μM",49.2%
same,Uptake rate,"MATE1; MATE1, compound 10 μM",129±1.08 pmol/mg protein/min
same,Percentage transported,"MATE1; MATE1, compound 30 μM",47.8%
same,Uptake rate,"MATE1; MATE1, compound 30 μM",126±22.8 pmol/mg protein/min
same,Percentage transported,"MATE1; MATE1, compound 100 μM",23.6%
same,Uptake rate,"MATE1; MATE1, compound 100 μM",68.4±2.28 pmol/mg protein/min
same,"inhibition at 2 min, 0.3 µM","MATE1; human, pH 8",2.01%
same,"inhibition at 2 min, 1 µM","MATE1; human, pH 8",13.9%
same,"inhibition at 2 min, 3 µM","MATE1; human, pH 8",26.8%
same,"inhibition at 2 min, 10 µM","MATE1; human, pH 8",50.8%
same,"inhibition at 2 min, 30 µM","MATE1; human, pH 8",52.2%
same,"inhibition at 2 min, 100 µM","MATE1; human, pH 8",76.4%
